Several values for one entry are separate records, joined by “and”; a condition that tells them apart may be missing. Equal values may be shown once.

What all share (format): cell-based
The target in one assay is T1, αvβ6 (Homo sapiens, UniProt P06756+P18564).
T1 construct: expressed in transfected cells; host or cells: K562
Briefly: Cell adhesion assay, K562-αvβ6 (LAP-b1). The following applies: K562-αvβ6 cells, ligand LAP-b1, 2 mM MgCl2; for IC50: mean, read-out: αvβ6 pIC50 (mean affinity, cell Adhesion Assay) (converted). As to the method: (§1) Reagents and methods utilised are as described [Ludbrook et al, Biochem. J. 2003, 369, 311 and Macdonald et al. ACS Med. Chem. Lett. 2014, 5, 1207-1212 for αvβ8 assay), with the following points of clarification. The following cell lines are used, with ligands in brackets: K562-αvβ3 (LAP-b1), K562-αvβ5 (Vitronectin), K562-αvβ6 (LAP-b1), K562-αvβ8 (LAP-b1), A549-αvβ1 (LAP-b1). The divalent cation used to facilitate adhesion is 2 mM MgCl2. Adhesion is quantified by cell labelling with the fluorescent dye BCECF-AM (Life Technologies), where cell suspensions at 3×10^6 cells/mL are incubated with 0.33 uL/mL of 30 mM BCECF-AM at 37° C. for 10 minutes, then 50 μL/well are dispensed into the 96-well assay plate. At the assay conclusion cells that adhered are lysed using 50 μL/well of 0.5% Triton X-100 in H2O to release fluorescence. Fluorescence intensity is detected using an Envision® plate reader (Perkin Elmer). For active antagonists in the assay, data is fitted to a 4 parameter logistic equation for IC50 determinations.

The next assay concerns the target T2, αvβ3 (Homo sapiens, UniProt P05106+P06756).
T2 construct: expressed in transfected cells; host or cells: K562
Briefly: Cell adhesion assay, K562-αvβ3 (LAP-b1). As to conditions: K562-αvβ3 cells, ligand LAP-b1, 2 mM MgCl2; for IC50: mean, read-out: αvβ3 pIC50 (mean affinity, cell Adhesion Assay) (converted). How it is done: as §1

A further assay addresses T3, αvβ8 (Homo sapiens, UniProt P06756+P26012).
T3 construct: expressed in transfected cells; host or cells: K562
Briefly: Cell adhesion assay, K562-αvβ8 (LAP-b1). As to conditions: K562-αvβ8 cells, ligand LAP-b1, 2 mM MgCl2; for IC50: mean, read-out: αvβ8 pIC50 (mean affinity, cell Adhesion Assay) (converted). As to the method: as §1

The target in a further assay is T4, αvβ1 (Homo sapiens, UniProt P05556+P06756).
T4 construct: host or cells: A549
T4 sequence (P06756 31-889 limits assumed): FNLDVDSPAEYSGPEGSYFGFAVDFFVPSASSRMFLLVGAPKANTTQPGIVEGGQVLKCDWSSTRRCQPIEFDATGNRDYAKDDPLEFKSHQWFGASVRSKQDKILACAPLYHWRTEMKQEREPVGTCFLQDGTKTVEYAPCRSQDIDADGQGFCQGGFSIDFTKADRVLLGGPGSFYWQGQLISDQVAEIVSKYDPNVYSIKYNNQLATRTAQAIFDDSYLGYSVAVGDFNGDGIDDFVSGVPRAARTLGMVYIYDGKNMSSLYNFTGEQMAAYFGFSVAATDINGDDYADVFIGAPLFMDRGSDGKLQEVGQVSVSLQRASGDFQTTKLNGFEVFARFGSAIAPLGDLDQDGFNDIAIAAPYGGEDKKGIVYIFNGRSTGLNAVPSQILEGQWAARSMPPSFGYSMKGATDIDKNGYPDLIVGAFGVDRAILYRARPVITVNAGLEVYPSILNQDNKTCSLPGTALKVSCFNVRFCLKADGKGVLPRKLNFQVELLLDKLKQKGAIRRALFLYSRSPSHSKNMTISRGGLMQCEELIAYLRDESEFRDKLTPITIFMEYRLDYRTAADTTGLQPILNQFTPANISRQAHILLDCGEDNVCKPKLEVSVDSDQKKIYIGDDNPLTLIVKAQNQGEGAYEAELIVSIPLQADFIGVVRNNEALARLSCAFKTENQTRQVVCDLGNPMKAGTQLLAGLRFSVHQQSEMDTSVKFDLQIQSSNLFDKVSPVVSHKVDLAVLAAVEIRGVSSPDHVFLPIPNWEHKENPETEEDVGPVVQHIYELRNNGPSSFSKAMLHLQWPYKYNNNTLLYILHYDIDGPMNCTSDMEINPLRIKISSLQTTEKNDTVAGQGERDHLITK
T4 sequence (P06756 891-1048 partner limits assumed): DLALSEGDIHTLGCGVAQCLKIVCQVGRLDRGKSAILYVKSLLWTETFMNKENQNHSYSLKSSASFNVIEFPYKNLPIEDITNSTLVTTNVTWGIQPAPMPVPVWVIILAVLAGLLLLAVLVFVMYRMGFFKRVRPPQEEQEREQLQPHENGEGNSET
T4 sequence (P05556 21-798): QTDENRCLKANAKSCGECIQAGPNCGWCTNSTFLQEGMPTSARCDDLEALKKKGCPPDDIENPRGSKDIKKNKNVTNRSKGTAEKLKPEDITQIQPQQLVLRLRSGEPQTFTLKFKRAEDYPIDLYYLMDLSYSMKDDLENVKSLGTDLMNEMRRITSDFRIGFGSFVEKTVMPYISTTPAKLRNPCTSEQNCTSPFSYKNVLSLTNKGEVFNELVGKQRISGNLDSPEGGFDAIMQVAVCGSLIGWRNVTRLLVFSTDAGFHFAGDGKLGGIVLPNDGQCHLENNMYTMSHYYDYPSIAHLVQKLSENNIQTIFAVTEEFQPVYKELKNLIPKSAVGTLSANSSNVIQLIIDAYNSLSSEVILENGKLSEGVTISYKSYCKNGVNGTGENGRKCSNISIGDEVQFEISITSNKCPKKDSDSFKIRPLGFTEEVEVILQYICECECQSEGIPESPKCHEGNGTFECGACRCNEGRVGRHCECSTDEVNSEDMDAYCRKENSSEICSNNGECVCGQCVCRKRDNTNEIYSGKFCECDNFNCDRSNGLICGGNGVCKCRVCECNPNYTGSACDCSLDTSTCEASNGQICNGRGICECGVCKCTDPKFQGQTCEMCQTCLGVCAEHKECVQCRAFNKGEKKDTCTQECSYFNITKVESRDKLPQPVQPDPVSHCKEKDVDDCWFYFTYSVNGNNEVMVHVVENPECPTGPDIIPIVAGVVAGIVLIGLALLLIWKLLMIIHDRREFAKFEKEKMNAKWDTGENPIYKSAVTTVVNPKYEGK
Description: Cell adhesion assay, A549-αvβ1 (LAP-b1). As to conditions: A549-αvβ1 cells, ligand LAP-b1, 2 mM MgCl2; for IC50: mean, read-out: αvβ1 pIC50 (mean affinity, cell Adhesion Assay) (converted). How it is done: as §1

The next assay deals with T5, αvβ5 (Homo sapiens, UniProt P06756+P18084).
T5 construct: expressed in transfected cells; host or cells: K562
Description: Cell adhesion assay, K562-αvβ5 (Vitronectin). The following applies: K562-αvβ5 cells, ligand Vitronectin, 2 mM MgCl2; for IC50: mean, read-out: αvβ5 pIC50 (mean affinity, cell Adhesion Assay) (converted). As to the method: as §1

T2 sequence (P06756 31-889 limits assumed): as the sequence (P06756 31-889 limits assumed) above
T2 sequence (P06756 891-1048 partner limits assumed): as the sequence (P06756 891-1048 partner limits assumed) above
T2 sequence (P05106 27-788): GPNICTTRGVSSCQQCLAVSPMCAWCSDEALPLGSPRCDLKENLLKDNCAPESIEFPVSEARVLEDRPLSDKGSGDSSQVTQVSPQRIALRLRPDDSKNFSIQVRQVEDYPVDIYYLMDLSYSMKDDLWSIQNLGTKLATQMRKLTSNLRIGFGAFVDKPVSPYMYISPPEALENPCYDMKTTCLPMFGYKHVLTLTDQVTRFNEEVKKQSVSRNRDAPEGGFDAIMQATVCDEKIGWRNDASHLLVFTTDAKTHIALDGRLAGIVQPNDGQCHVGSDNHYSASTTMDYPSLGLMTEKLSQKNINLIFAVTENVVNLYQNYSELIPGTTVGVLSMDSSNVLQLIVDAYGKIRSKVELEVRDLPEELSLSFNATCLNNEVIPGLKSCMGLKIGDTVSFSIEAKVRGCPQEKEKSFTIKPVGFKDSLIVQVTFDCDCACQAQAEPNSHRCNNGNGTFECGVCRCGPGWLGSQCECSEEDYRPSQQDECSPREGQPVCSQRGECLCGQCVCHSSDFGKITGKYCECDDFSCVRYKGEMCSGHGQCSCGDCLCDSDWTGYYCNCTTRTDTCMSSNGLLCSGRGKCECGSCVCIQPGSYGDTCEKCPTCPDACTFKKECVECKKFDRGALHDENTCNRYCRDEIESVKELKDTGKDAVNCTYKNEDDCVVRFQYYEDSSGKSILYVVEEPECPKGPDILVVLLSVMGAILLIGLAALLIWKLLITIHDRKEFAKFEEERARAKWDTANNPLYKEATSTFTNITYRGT
T1 sequence (P06756 31-889 limits assumed): as the sequence (P06756 31-889 limits assumed) above
T1 sequence (P06756 891-1048 partner limits assumed): as the sequence (P06756 891-1048 partner limits assumed) above
T1 sequence (P18564 22-788): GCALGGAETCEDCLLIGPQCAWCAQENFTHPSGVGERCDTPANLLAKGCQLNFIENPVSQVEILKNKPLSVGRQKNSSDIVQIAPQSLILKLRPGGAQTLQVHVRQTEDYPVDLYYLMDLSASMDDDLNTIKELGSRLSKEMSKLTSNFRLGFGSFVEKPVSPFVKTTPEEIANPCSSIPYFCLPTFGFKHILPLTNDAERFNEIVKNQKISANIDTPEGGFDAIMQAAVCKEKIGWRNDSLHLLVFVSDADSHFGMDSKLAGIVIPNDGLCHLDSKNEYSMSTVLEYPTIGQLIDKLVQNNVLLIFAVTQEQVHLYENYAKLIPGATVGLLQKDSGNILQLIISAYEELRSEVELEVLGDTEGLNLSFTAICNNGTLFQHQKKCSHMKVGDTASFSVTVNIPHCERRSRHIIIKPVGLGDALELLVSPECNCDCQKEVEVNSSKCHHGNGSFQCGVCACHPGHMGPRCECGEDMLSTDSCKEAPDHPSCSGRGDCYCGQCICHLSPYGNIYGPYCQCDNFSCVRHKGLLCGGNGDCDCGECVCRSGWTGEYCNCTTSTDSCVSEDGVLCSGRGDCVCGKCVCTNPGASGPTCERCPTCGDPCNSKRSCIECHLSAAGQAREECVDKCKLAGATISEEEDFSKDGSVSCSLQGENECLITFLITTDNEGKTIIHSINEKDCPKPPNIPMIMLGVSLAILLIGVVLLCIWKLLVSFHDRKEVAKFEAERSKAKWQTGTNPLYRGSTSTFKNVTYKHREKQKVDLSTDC
T3 sequence (P06756 31-889 limits assumed): as the sequence (P06756 31-889 limits assumed) above
T3 sequence (P06756 891-1048 partner limits assumed): as the sequence (P06756 891-1048 partner limits assumed) above
T3 sequence (P26012 43-769): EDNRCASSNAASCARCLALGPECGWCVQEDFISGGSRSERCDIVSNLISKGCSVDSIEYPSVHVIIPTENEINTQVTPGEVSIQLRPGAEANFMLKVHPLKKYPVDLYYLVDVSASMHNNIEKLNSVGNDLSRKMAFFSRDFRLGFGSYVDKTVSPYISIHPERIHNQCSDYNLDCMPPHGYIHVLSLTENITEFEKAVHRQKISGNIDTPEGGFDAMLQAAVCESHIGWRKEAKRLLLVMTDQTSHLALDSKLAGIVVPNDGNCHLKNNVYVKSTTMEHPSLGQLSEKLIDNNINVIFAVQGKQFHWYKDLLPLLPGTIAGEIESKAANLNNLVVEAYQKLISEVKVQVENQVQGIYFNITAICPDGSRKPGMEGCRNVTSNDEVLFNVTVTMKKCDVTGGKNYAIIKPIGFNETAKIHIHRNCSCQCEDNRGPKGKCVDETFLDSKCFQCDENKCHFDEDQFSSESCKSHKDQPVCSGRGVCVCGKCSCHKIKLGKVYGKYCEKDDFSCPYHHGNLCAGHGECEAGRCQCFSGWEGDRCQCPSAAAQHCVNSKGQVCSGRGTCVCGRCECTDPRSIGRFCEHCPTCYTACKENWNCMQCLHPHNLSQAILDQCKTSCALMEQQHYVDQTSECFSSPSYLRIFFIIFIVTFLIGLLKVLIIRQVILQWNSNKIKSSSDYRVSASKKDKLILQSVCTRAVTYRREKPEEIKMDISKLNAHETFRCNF

In the case of `O=C(O)C[C@H](CN1CC[C@@](F)(CCc2ccc3c(n2)NCCC3)C1)c1cccc(C2CCOC2)c1` (single isomer, unassigned; isomer 1) [Example 10], the IC50 was 12.6 nM on αvβ6; 63.1 nM on αvβ3; 20 nM at αvβ8; 398 nM on αvβ1; 79.4 nM on αvβ5.

With `O=C(O)C[C@H](CN1CC[C@@](F)(CCc2ccc3c(n2)NCCC3)C1)c1cccc(C2CCOC2)c1` (single isomer, unassigned; isomer 2) [Example 11], the IC50 on αvβ1 and on αvβ5 was 126 nM in each case.

As to `O=C(O)C[C@H](CN1CC[C@@](F)(CCc2ccc3c(n2)NCCC3)C1)c1cccc(OC[C@H]2CCCO2)c1` [Example 1, (S)-4-((S)-3-Fluoro-3-(2-(5,6,7,8-tetrahydro-1,8-naphthyridin-2-yl)ethyl)pyrrolidin-1-yl)-3-(3-(((R)-tetrahydrofuran-2-yl)methoxy)phenyl)butanoic acid], the IC50 is 25.1 nM at αvβ6; 79.4 nM on αvβ3; 100 nM at αvβ8; 2000 nM at αvβ1; 251 nM on αvβ5.

`O=C(O)C[C@H](CN1CC[C@@](F)(CCc2ccc3c(n2)NCCC3)C1)c1cccc(OC[C@@H]2CCCO2)c1` [Example 2, (S)-4-((S)-3-Fluoro-3-(2-(5,6,7,8-tetrahydro-1,8-naphthyridin-2-yl)ethyl)pyrrolidin-1-yl)-3-(3-(((S)-tetrahydrofuran-2-yl)methoxy)phenyl)butanoic acid]: the IC50 on αvβ6 is 15.8 nM; on αvβ8 it was 100 nM; at αvβ1 it was 1000 nM; at αvβ5, 100 nM.

Turning to `O=C(O)C[C@H](CN1CC[C@@](F)(CCc2ccc3c(n2)NCCC3)C1)c1cccc(O[C@@H]2CCOC2)c1` [Example 3, (S)-4-((S)-3-Fluoro-3-(2-(5,6,7,8-tetrahydro-1,8-naphthyridin-2-yl)ethyl)pyrrolidin-1-yl)-3-(3-(((R)-tetrahydrofuran-3-yl)oxy)phenyl)butanoic acid], the IC50 on αvβ6 is 5.01 nM; on αvβ3 it was 100 nM; on αvβ8, 50.1 nM; at αvβ1 it was 200 nM; on αvβ5, 39.8 nM.

Consider `O=C(O)C[C@H](CN1CC[C@@](F)(CCc2ccc3c(n2)NCCC3)C1)c1cccc(O[C@H]2CCOC2)c1` [Example 4, (S)-4-((S)-3-Fluoro-3-(2-(5,6,7,8-tetrahydro-1,8-naphthyridin-2-yl)ethyl)pyrrolidin-1-yl)-3-(3-(((S)-tetrahydrofuran-3-yl)oxy)phenyl)butanoic acid], for which the IC50 on αvβ6 is 5.01 nM; at αvβ3, 50.1 nM; at αvβ8 it was 31.6 nM; on αvβ1 it was 100 nM; at αvβ5 it was 79.4 nM.

On to `CO[C@H](C)COc1cccc([C@H](CC(=O)O)CN2CC[C@@](F)(CCc3ccc4c(n3)NCCC4)C2)c1` [Example 5], for which the IC50 on αvβ6 is 12.6 nM; at αvβ3 it was 31.6 nM; at αvβ8, 31.6 nM; on αvβ1 it was 200 nM; at αvβ5, 25.1 nM.

In the case of `CO[C@@H](C)COc1cccc([C@H](CC(=O)O)CN2CC[C@@](F)(CCc3ccc4c(n3)NCCC4)C2)c1` [Example 6], the IC50 is 12.6 nM at αvβ6; 63.1 nM on αvβ3; 39.8 nM on αvβ8; 126 nM on αvβ1; 316 nM at αvβ5.

With `COCC(C)(C)Oc1cccc([C@H](CC(=O)O)CN2CC[C@@](F)(CCc3ccc4c(n3)NCCC4)C2)c1` [Example 7, (S)-4-((S)-3-Fluoro-3-(2-(5,6,7,8-tetrahydro-1,8-naphthyridin-2-yl)ethyl)pyrrolidin-1-yl)-3-(3-((1-methoxy-2-methylpropan-2-yl)oxy)phenyl)butanoic acid], the IC50 is 20 nM at αvβ6; 79.4 nM on αvβ3; 50.1 nM at αvβ8; 63.1 nM on αvβ1; 63.1 nM on αvβ5.

Regarding `O=C(O)C[C@H](CN1CC[C@@](F)(CCc2ccc3c(n2)NCCC3)C1)c1cccc(OC2COC2)c1` [Example 8, (S)-4-((S)-3-Fluoro-3-(2-(5,6,7,8-tetrahydro-1,8-naphthyridin-2-yl)ethyl)pyrrolidin-1-yl)-3-(3-(oxetan-3-yloxy)phenyl)butanoic acid], the IC50 was 12.6 nM at αvβ6; 100 nM on αvβ3; 31.6 nM on αvβ8; 398 nM on αvβ1; 63.1 nM at αvβ5.

Turning to `COCCOc1cc(OCCOC)cc([C@H](CC(=O)O)CN2CC[C@@](F)(CCc3ccc4c(n3)NCCC4)C2)c1` [Example 9, (S)-3-(3,5-Bis(2-methoxyethoxy)phenyl)-4-((S)-3-fluoro-3-(2-(5,6,7,8-tetrahydro-1,8-naphthyridin-2-yl)ethyl)pyrrolidin-1-yl)butanoic acid], the IC50 is 10 nM at αvβ6, 50.1 nM at αvβ8 and 1000 nM on αvβ1.

Turning to `O=C(O)C[C@H](CN1CC[C@@](F)(CCc2ccc3c(n2)NCCC3)C1)c1cccc(OCC2COC2)c1` [Example 12, (S)-4-((S)-3-Fluoro-3-(2-(5,6,7,8-tetrahydro-1,8-naphthyridin-2-yl)ethyl)pyrrolidin-1-yl)-3-(3-(oxetan-3-ylmethoxy)phenyl)butanoic acid], the IC50 was 15.8 nM at αvβ6; 63.1 nM on αvβ3; 25.1 nM on αvβ8; 251 nM at αvβ1; 31.6 nM at αvβ5.

Regarding `COCCOc1cc(OCCF)cc(C(CC(=O)O)CN2CC[C@@](F)(CCc3ccc4c(n3)NCCC4)C2)c1` (stereo partly drawn) [Example 13, 4-((S)-3-Fluoro-3-(2-(5,6,7,8-tetrahydro-1,8-naphthyridin-2-yl)ethyl)pyrrolidin-1-yl)-3-(3-(2-fluoroethoxy)-5-(2-methoxyethoxy)phenyl)butanoic acid], the IC50 on αvβ6 is 10 nM; at αvβ3, 79.4 nM; on αvβ8 it was 31.6 nM; at αvβ1, 126 nM; at αvβ5, 100 nM.

In the case of `COCCOc1ccc(F)c(C(CC(=O)O)CN2CC[C@@](F)(CCc3ccc4c(n3)NCCC4)C2)c1` (stereo partly drawn) [Example 14, 4-((S)-3-Fluoro-3-(2-(5,6,7,8-tetrahydro-1,8-naphthyridin-2-yl)ethyl)pyrrolidin-1-yl)-3-(2-fluoro-5-(2-methoxyethoxy)phenyl)butanoic acid], the IC50 was 25.1 nM at αvβ6; 501 nM at αvβ3; 158 nM at αvβ8; 2000 nM at αvβ1; 25.1 nM at αvβ5.

Regarding `O=C(O)C[C@H](CN1CC[C@@](F)(CCc2ccc3c(n2)NCCC3)C1)c1cccc(OC2CCOCC2)c1` [Example 15, (S)-4-((S)-3-Fluoro-3-(2-(5,6,7,8-tetrahydro-1,8-naphthyridin-2-yl)ethyl)pyrrolidin-1-yl)-3-(3-((tetrahydro-2H-pyran-4-yl)oxy)phenyl)butanoic acid], the IC50 is 10 nM and 12.6 nM at αvβ6; 20 nM on αvβ3; 316 nM on αvβ1; 39.8 nM on αvβ5.

In the case of `O=C(O)CC(O)(CC(=O)O)C(=O)O.O=C(O)C[C@H](CN1CC[C@@](F)(CCc2ccc3c(n2)NCCC3)C1)c1cccc(O[C@@H]2CCOC2)c1` [Example 16, (S)-4-((S)-3-Fluoro-3-(2-(5,6,7,8-tetrahydro-1,8-naphthyridin-2-yl)ethyl)pyrrolidin-1-yl)-3-(3-(((R)-tetrahydrofuran-3-yl)oxy)phenyl)butanoic acid (1:1) citrate salt], at αvβ3, the “αvβ3 pIC50 (mean affinity, cell Adhesion Assay)” value is 7.6. The “αvβ1 pIC50 (mean affinity, cell Adhesion Assay)” value at αvβ1 is listed as 6.8. The “αvβ5 pIC50 (mean affinity, cell Adhesion Assay)” value at αvβ5 was determined as 7.4.

Regarding `O=C(O)/C=C\C(=O)O.O=C(O)C[C@H](CN1CC[C@@](F)(CCc2ccc3c(n2)NCCC3)C1)c1cccc(O[C@@H]2CCOC2)c1` [Example 17, (S)-4-((S)-3-Fluoro-3-(2-(5,6,7,8-tetrahydro-1,8-naphthyridin-2-yl)ethyl)pyrrolidin-1-yl)-3-(3-(((R)-tetrahydrofuran-3-yl)oxy)phenyl)butanoic acid (1:1) maleate salt], the “αvβ6 pIC50 (mean affinity, cell Adhesion Assay)” value on αvβ6 came to 8.2. Moreover, the “αvβ3 pIC50 (mean affinity, cell Adhesion Assay)” value at αvβ3 came out at 7.3. Besides, the “αvβ8 pIC50 (mean affinity, cell Adhesion Assay)” value at αvβ8 is reported as 7.7. For the same compound, the “αvβ1 pIC50 (mean affinity, cell Adhesion Assay)” value at αvβ1 worked out at 6.9. Also, the “αvβ5 pIC50 (mean affinity, cell Adhesion Assay)” value on αvβ5 is 8.1.

Source of the values: patent US20210206758A1, “NAPHTHYRIDINES AS INTEGRIN ANTAGONISTS” (GlaxoSmithKline Intellectual Property Development Limited, priority 2016, published 2021).
